Patent publication US7745636B2, “Hepatitis C virus inhibitors” (Bristol-Myers Squibb Company, priority 2006, dated 2010)

Test system: HCV 1b-377-neo replicon cells
Assay: HCV Replicon assay, HCV 1b-377-neo replicon cells
Format: cell-based, HCV 1b genotype
Details: Hepatitis C virus, Table 2, read-out: Range (EC50 against HCV 1b)
Method: An HCV Replicon assay was utilized in the present disclosure, and was prepared, conducted and validated as described in commonly owned PCT/US2006/022197 and in O'Boyle et. al. Antimicrob Agents Chemother. 2005 April; 49(4):1346-53.
HCV 1b-377-neo replicon cells were used to test the currently described compound series as well as cells resistant to compound A due to a Y2065H mutation in NS5A (described in application PCT/US2006/022197). The compounds tested were determined to have more than 10-fold less inhibitory activity on cells resistant to compound A than wild-type cells indicating a related mechanism of action between the two compound series. Thus, the compounds of the present disclosure can be effective to inhibit the function of the HCV NS5A protein and are understood to be as effective in combinations as previously described in application PCT/US2006/022197 and commonly owned WO/O4014852. Further, the compounds of the present disclosure can be effective against the HCV 1b genotype. It should also be understood that the compounds of the present disclosure can inhibit multiple genotypes of HCV. […] In one embodiment compounds of the present disclosure are active against the 1a, 1b, 2a, 2b, 3a, 4a, and 5a genotypes.

Row | SMILES | EC50 [pM]
1 | C[C@@H](c1ncc(-c2ccc(-c3ncc(-c4cnc([C@@H]5CCCN5C(=O)[C@@H](c5ccccc5)N5CCCCC5)[nH]4)cn3)cc2)[nH]1)N(C)C(=O)[C@@H](c1ccccc1)N1CCCCC1 [Example 152j-6, (2R)-N-methyl-2-phenyl-N-((1S)-1-(4-(4-(5-(2-((2S)-1-((2R)-2-phenyl-2-(1-piperidinyl)acetyl)-2-pyrrolidinyl)-1H-imidazol-5-yl)-2-pyrimidinyl)phenyl)-1H-imidazol-2-yl)ethyl)-2-(1-piperidinyl)acetamide] | 1 to 999
2 | CN(C)[C@@H](C(=O)N1CCC[C@H]1c1ncc(-c2ccc(-c3cnc(-c4cnc([C@@H]5CCCN5C(=O)[C@@H](c5ccccc5)N(C)C)[nH]4)cn3)cc2)[nH]1)c1ccccc1 [Example 152j-7, (1R)-2-((2S)-2-(5-(5-(4-(2-((2S)-1-((2R)-2-(dimethylamino)-2-phenylacetyl)-2-pyrrolidinyl)-1H-imidazol-5-yl)phenyl)-2-pyrazinyl)-1H-imidazol-2-yl)-1-pyrrolidinyl)-N,N-dimethyl-2-oxo-1-phenylethanamine] | 1000 to 99000
3 | COC(=O)N[C@@H](C(=O)N1CCC[C@H]1c1ncc(-c2ccc(-c3cnc(-c4cnc([C@@H]5CCCN5C(=O)[C@H](NC(=O)OC)c5ccccc5)[nH]4)cn3)cc2)[nH]1)c1ccccc1 [Example 152j-8, methyl ((1R)-2-((2S)-2-(5-(5-(4-(2-((2S)-1-((2R)-2-((methoxycarbonyl)amino)-2-phenylacetyl)-2-pyrrolidinyl)-1H-imidazol-5-yl)phenyl)-2-pyrazinyl)-1H-imidazol-2-yl)-1-pyrrolidinyl)-2-oxo-1-phenylethyl)carbamate] | 1 to 999
4 | CN(C)[C@@H](C(=O)N1CCC[C@H]1c1ncc(-c2ccc(-c3ccc(-c4cnc([C@@H]5CCCN5C(=O)[C@@H](c5ccccc5)N(C)C)[nH]4)nn3)cc2)[nH]1)c1ccccc1 [Example 152j-9, (1R)-2-((2S)-2-(5-(6-(4-(2-((2S)-1-((2R)-2-(dimethylamino)-2-phenylacetyl)-2-pyrrolidinyl)-1H-imidazol-5-yl)phenyl)-3-pyridazinyl)-1H-imidazol-2-yl)-1-pyrrolidinyl)-N,N-dimethyl-2-oxo-1-phenylethanamine] | 1000 to 99000
5 | COC(=O)N[C@@H](C(=O)N1CCC[C@H]1c1ncc(-c2ccc(-c3ccc(-c4cnc([C@@H]5CCCN5C(=O)[C@H](NC(=O)OC)c5ccccc5)[nH]4)nn3)cc2)[nH]1)c1ccccc1 [Example 152j-10, methyl ((1R)-2-((2S)-2-(5-(6-(4-(2-((2S)-1-((2R)-2-((methoxycarbonyl)amino)-2-phenylacetyl)-2-pyrrolidinyl)-1H-imidazol-5-yl)phenyl)-3-pyridazinyl)-1H-imidazol-2-yl)-1-pyrrolidinyl)-2-oxo-1-phenylethyl)carbamate] | 1000 to 99000
6 | C[C@H](NC(=O)[C@@H](c1ccccc1)N(C)C)c1ncc(-c2ccc(-c3ccc(-c4cnc([C@@H]5CCCN5C(=O)[C@@H](c5ccccc5)N(C)C)[nH]4)cn3)cc2)[nH]1 [Example 152j-11, (2R)-2-(dimethylamino)-N-((1S)-1-(5-(4-(5-(2-((2S)-1-((2R)-2-(dimethylamino)-2-phenylacetyl)-2-pyrrolidinyl)-1H-imidazol-5-yl)-2-pyridinyl)phenyl)-1H-imidazol-2-yl)ethyl)-2-phenylacetamide] | 1 to 999
7 | COC(=O)N[C@@H](C(=O)N[C@@H](C)c1ncc(-c2ccc(-c3ccc(-c4cnc([C@@H]5CCCN5C(=O)[C@H](NC(=O)OC)c5ccccc5)[nH]4)cn3)cc2)[nH]1)c1ccccc1 [Example 152j-12, methyl ((1R)-2-((2S)-2-(5-(6-(4-(2-((1S)-1-(((2R)-2-((methoxycarobnyl)amino)-2-phenylace-tyl)amino)eth-yl)-1H-imidazol-5-yl)phenyl)-3-pyridinyl)-1H-imidazol-2-yl)-1-pyrrolidinyl)-2-oxo-1-phenylethyl)carbamate] | 1 to 999
8 | C[C@H](NC(=O)[C@@H](c1ccccc1)N(C)C)c1ncc(-c2ccc(-c3ccc(-c4cnc([C@@H]5CCCN5C(=O)[C@@H](c5ccccc5)N(C)C)[nH]4)nn3)cc2)[nH]1 [Example 152j-13, (2R)-2-(dimethylamino)-N-((1S)-1-(5-(4-(6-(2-((2S)-1-((2R)-2-(dimethylamino)-2-phenylacetyl)-2-pyrrolidinyl)-1H-imidazol-5-yl)-3-pyridazinyl)phenyl)-1H-imidazol-2-yl)ethyl)-2-phenylacetamide] | 1000 to 99000
9 | COC(=O)N[C@@H](C(=O)N[C@@H](C)c1ncc(-c2ccc(-c3ccc(-c4cnc([C@@H]5CCCN5C(=O)[C@H](NC(=O)OC)c5ccccc5)[nH]4)nn3)cc2)[nH]1)c1ccccc1 [Example 152j-14, methyl ((1R)-2-((2S)-2-(5-(6-(4-(2-((1S)-1-(((2R)-2-((methoxycarobnyl)amino)-2-phenylace-tyl)amino)eth-yl)-1H-imidazol-5-yl)phenyl)-3-pyridazinyl)-1H-imidazol-2-yl)-1-pyrrolidinyl)-2-oxo-1-phenylethyl)carbamate] | 1000 to 99000
10 | COC(=O)N[C@@H](C(=O)N[C@@H](C)c1ncc(-c2ccc(-c3ncc(-c4cnc([C@@H]5CCCN5C(=O)[C@H](NC(=O)OC)c5ccccc5)[nH]4)cn3)cc2)[nH]1)c1ccccc1 [Example 152j-15, methyl ((1R)-2-((2S)-2-(5-(2-(4-(2-((1S)-1-(((2R)-2-((methoxycarbonyl)amino)-2-phenylace-tyl)amino)eth-yl)-1H-imidazol-5-yl)phenyl)-5-pyrimidinyl)-1H-imidazol-2-yl)-1-pyrrolidinyl)-2-oxo-1-phenylethyl)carbamate] | 1 to 999
11 | C[C@H](NC(=O)[C@@H](c1ccccc1)N(C)C)c1ncc(-c2cnc(-c3ccc(-c4cnc([C@@H]5CCCN5C(=O)[C@@H](c5ccccc5)N(C)C)[nH]4)cc3)nc2)[nH]1 [Example 152j-16, (2R)-2-(dimethylamino)-N-((1S)-1-(5-(2-(4-(2-((2S)-1-((2R)-2-(dimethylamino)-2-phenylacetyl)-2-pyrrolidinyl)-1H-imidazol-5-yl)phenyl)-5-pyrimidinyl)-1H-imidazol-2-yl)ethyl)-2-phenylacetamide] | 1 to 999
12 | COC(=O)N[C@@H](C(=O)N[C@@H](C)c1ncc(-c2cnc(-c3ccc(-c4cnc([C@@H]5CCCN5C(=O)[C@H](NC(=O)OC)c5ccccc5)[nH]4)cc3)nc2)[nH]1)c1ccccc1 [Example 152j-17, methyl ((1R)-2-((2S)-2-(5-(4-(5-(2-((1S)-1-(((2R)-2-((methoxycarbonyl)amino)-2-phenylace-tyl)amino)eth-yl)-1H-imidazol-5-yl)-2-pyrimidinyl)phenyl)-1H-imidazol-2-yl)-1-pyrrolidinyl)-2-oxo-1-phenylethyl)carbamate] | 1 to 999
13 | C[C@H](NC(=O)[C@@H](c1ccccc1)N(C)C)c1ncc(-c2cnc(-c3ccc(-c4cnc([C@@H]5CCCN5C(=O)[C@@H](c5ccccc5)N(C)C)[nH]4)cc3)cn2)[nH]1 [Example 152j-18, (2R)-2-(dimethylamino)-N-((1S)-1-(5-(5-(4-(2-((2S)-1-((2R)-2-(dimethylamino)-2-phenylacetyl)-2-pyrrolidinyl)-1H-imidazol-5-yl)phenyl)-2-pyrazinyl)-1H-imidazol-2-yl)ethyl)-2-phenylacetamide] | 1 to 999
